Tested on: Normal human dermal fibroblasts
Test: UV radiation test in vitro, UV-B
Assay type: cell-based
Conditions: fibroblasts exposed to test substance 48 hours before UV irradiation; UV dose inducing 50% of cell death
Method: The fractionated low-erucic rapeseed oil of Example 1, the canola oil fraction, was tested in vitro for its ability to decrease the damage to cells exposed to free radicals generated by exposure to UV radiation. Normal human dermal fibroblasts were exposed to the test substance at different concentrations 48 hours before UV irradiation. DL-α-tocopheryl acetate was used as a positive control in the study. The UV dose inducing 50% of cell death was determined after the treatment by exposing the cell cultures to UV-A and UV-B radiation at different intensities.

CC(=O)Oc1c(C)c(C)c2c(c1C)CC[C@@](C)(CCC[C@H](C)CCC[C@H](C)CCCC(C)C)O2 (racemic) [DL-α-tocopheryl acetate]
protection against UV-B radiation: neither the fractionated rapeseed oil of Example 1 or the DL-α-tocopheryl acetate gave any protection

— US6552208B1, “Fractionation process” (Karlshamns AB, priority 1998, dated 2003)
